pIC50: −log10 of the molar value.
What was measured:
H187 cell line = assay: Cell activity detection, Alamar-Blue, H187; assay type: cell-based; details: Homo sapiens, NCI-H187, 72 h incubation
Experimental: (§1) H211 and H187 cell lines were purchased from ATCC and tested in accordance with the Alamar-Blue test kit instructions. The drugs were dissolved in 50 mM stock solution with DMSO and stored in a freezer at −20° C. The test drug stock solution was serially diluted with DMSO graded in a ratio of 1:3. Then DMSO diluted drug was serially diluted into a drug solution in 10× final concentration with cell complete culture medium. The 96-well cell culture plate was removed from the incubator, and 10 μl of culture medium containing a series of different concentrations of drug (10× final concentration) was added to a 96-well plate, and incubated at 37° C. for 72 h in CO2 incubator. The inhibition rate was plotted using GraphPad Prism 5.0 and MATILAB software by a non-linear regression method to obtain a series of dose-response curves from which the IC50 of the test sample was obtained, Table 2.

[1] = molecular target: T1, BRD4 (BD1+BD2) bromodomain protein (Homo sapiens, UniProt O60885); assay: TR-FRET BRD4 activity assay (Cayman kit); assay type: binding; details: room temperature 2 hours
T1 construct: BRD4 (BD1+BD2) bromodomain protein; purchased Cayman
Experimental: Detection of TR-FRET BRD4 Activity:
The BRD4 activity assay was performed according to the TR-FRET method in the Cayman kit. Dilute 3×BRD TR-FRET Assay Buffer 1 with ultrapure water to 1×BRD TR-FRET Assay Buffer for further use. 1×BRD TR-FRET Assay Buffer was used to dilute Tb-labeled donor and dye-labeled acceptor in 100-fold. 5 μl of diluted Tb-labeled donor and dye-labeled acceptor were added respectively to the sample well, negative control well and positive control well. The configured 1×BRD TR-FRET Assay Buffer was used to formulate a 10% DMSO solution (excessive DMSO concentration would affect the reaction, and the final concentration of DMSO was controlled at 1%), then test compounds are diluted with 10% DMSO solution to give the compound's initial concentrations of 1 μM and 100 nM, IC50 test was started from 10 μM or 100 μM, diluted in 3-fold to give 8 or 10 concentration points. In addition to the control wells, 2 μl of the diluted test compound solution was added to the wells used, and 2 μl of the previously prepared 10% DMSO solution was added to the control wells. The BET Bromodomain Ligand and Non-acetylated Ligand 1 were respectively diluted in 40 fold with 1×BRD TR-FRET Assay Buffer. 5 μl of diluted BET Bromodomain Ligand was added to sample wells and positive control wells, and 5 μl of diluted non-acetylated ligand 1 was added into the negative control wells. 1×BRD TR-FRET Assay Buffer was used to dilute BRD4 (BD1+BD2) bromodomain protein to 6 ng/μl (18 ng/well), and 3 μl of diluted BRD4 (BD1+BD2) bromodomain protein was added to each well. The plate was sealed and mixed well. The reaction was performed at room temperature for 2 hours, and then fluorescence signals (320 nm stimulation, 665 nm, 615 nm emission) were detected with the ENVISION (Perkinelmer) instrument. The inhibition rate was calculated for each well by positive control wells and negative control wells, and average value was calculated for multiple wells. The results were plotted with Software PRISM 5.0 to fit the half inhibitory activity (IC50) for each test compound, Table 1.

H211 cell line = assay: Cell activity detection, Alamar-Blue, H211; assay type: cell-based; details: Homo sapiens, NCI-H211, 72 h incubation
Experimental: as §1

MDA-MB-231 cell line = assay: Cell activity detection, CCK-8, MDA-MB-231; assay type: cell-based; details: Homo sapiens, CCK-8, 72 hours incubation
Experimental: MDA-MB-231 cell line was purchased from Shanghai Cell Resource Center of the Chinese Academy of Sciences, and was performed according to the method in the kit of CCK-8. The cells in the logarithmic growth phase were collected, counted, and the cells were re-suspended in complete medium to adjust the cell concentration to a suitable concentration (determined according to cell density optimization test results), inoculated in 96-well plates, and each well was added with 100 μl of cell suspension. Cells were incubated at 37° C., in a 100% relative humidity and 5% CO2 incubator for 24 hours. The compound was diluted to the appropriate effective concentration determined with medium and the cells were added by 25 μl/well. The final concentration of the compound was diluted to from 1 μM to 0 μM graded in three-fold dilution to give 10 concentration points. The cells were incubated at 37° C., in a 100% relative humidity and 5% CO2 incubator for 72 hours. 1/10 volume of CCK-8 was added directly to the cell culture medium and incubated in a 37° C. incubator for 2-4 hours. The absorbance at 450 nm was determined on a SpectraMax M5 Microplate Reader after gentle shaking. Absorbance at 650 nm was taken as the reference. The IC50 curve fitting was performed using soft Graphpad Prism 5 and the IC50 value was calculated.

Row | SMILES | pIC50 (H187 cell line) | pIC50 [1] | pIC50 (H211 cell line) | pIC50 (MDA-MB-231 cell line)
1 | Cc1nnn(C)c1-c1cnc2c3cc4c(cc3n([C@H](c3ccccc3)C3CCOCC3)c2c1)C(=O)N(C)C4 [Compound 1] | 7.68 | 8.44 | 8.14 | –
2 | Cc1nnn(C)c1-c1cnc2c3cc4c(cc3n([C@H](c3ccccc3)C3CCOCC3)c2c1)CN(C)C4=O [Compound 2] | 7.72 | 8.66 | 8.07 | –
3 | Cc1nnn(C)c1-c1cnc2c3c4c(ccc3n([C@H](c3ccccc3)C3CCOCC3)c2c1)C(=O)N(C)C4 [Compound 3] | 7.46 | 8.72 | 8.28 | –
4 | Cc1nnn(C)c1-c1cnc2c3cc4c(cnn4C)cc3n([C@H](c3ccccc3)C3CCOCC3)c2c1 [Compound 4] | 7.43 | 8.34 | 7.95 | –
5 | Cc1nnn(C)c1-c1cnc2c3cc4cnn(C)c4cc3n([C@H](c3ccccc3)C3CCOCC3)c2c1 [Compound 5] | 7.46 | 8.42 | 7.53 | –
6 | Cc1nnn(C)c1-c1cnc2c3c4cnn(C)c4ccc3n([C@H](c3ccccc3)C3CCOCC3)c2c1 [Compound 6] | 8.26 | 9.00 | 8.70 | 8.80
7 | Cc1nnn(C)c1-c1cnc2c3c4c(ccc3n([C@H](c3ccccc3)C3CCOCC3)c2c1)cnn4C [Compound 7] | 8.19 | 8.28 | 8.46 | 8.34
8 | Cc1nnn(C)c1-c1cnc2c3c4cnn(C)c4c(F)cc3n([C@H](c3ccccc3)C3CCOCC3)c2c1 [Compound 8] | 8.19 | 8.59 | 8.38 | 8.49
9 | Cc1nnn(C)c1-c1cnc2c3c4ccn(C)c4ccc3n([C@H](c3ccccc3)C3CCOCC3)c2c1 [Compound 9] | 8.15 | 8.46 | 8.17 | –
10 | Cc1nnn(C)c1-c1cnc2c3c4cc[nH]c4ccc3n([C@H](c3ccccc3)C3CCOCC3)c2c1 [Compound 10] | 8.07 | 8.82 | 7.49 | 8.09
11 | Cc1nnn(C)c1-c1cnc2c3c4cn[nH]c4ccc3n([C@H](c3ccccc3)C3CCOCC3)c2c1 [Compound 11] | 8.26 | 9.00 | 8.38 | 8.43
12 | Cc1nnn(C)c1-c1cnc2c3c4cccnc4ccc3n([C@H](c3ccccc3)C3CCOCC3)c2c1 [Compound 12] | 8.12 | 8.49 | 7.92 | –
13 | [2H]C([2H])([2H])c1nnn(C)c1-c1cnc2c3c4cnn(C)c4ccc3n([C@H](c3ccccc3)C3CCOCC3)c2c1 [Compound 13] | 8.26 | 9.00 | 8.70 | 8.74
14 | [2H]C([2H])([2H])c1nnn(C)c1-c1cnc2c3c4cn[nH]c4ccc3n([C@H](c3ccccc3)C3CCOCC3)c2c1 [Compound 14] | 8.26 | 9.00 | 8.40 | 8.46

— patent US10428071B2, “Carboline derivative serving as bromodomain inhibitor” (NINGBO WENDA PHARMA TECHNOLOY LTD., priority 2016, dated 2019)
